Assay results from patent US6379649B1, “Imidazo(1,2-a)pyridines as peripheral benzodiazepine receptor binding agents” (Australian Nuclear Science & Technology Organisation, priority 1998, dated 2002).

Experiment: In vivo biodistribution of radiolabelled compounds in rats
Source text: In vivo biodistribution of radiolabelled compounds of the invention indicated high uptake in the tissues which have known PBR sites. Tables 2 to 4 show the biodistribution of the compounds of Examples 1-3, in which the iodine atom is radiolabelled, when administered to rats.

In the case of `CNC(=O)Cc1c(-c2ccc([123I])cc2)nc2ccc(Cl)cn12` [^123-I Example 1], the “Biodistribution (% ID/g organ) Adrenals” value (5 Min) is reported as 4.51 ± 1.32 % ID/g organ, the “Biodistribution (% ID/g organ) Adrenals” value (15 Min) is reported as 7.8 ± 2.16 % ID/g organ and the “Biodistribution (% ID/g organ) Adrenals” value (24 Hrs) is reported as 0.22 ± 0.09 % ID/g organ. For the same compound, the “Biodistribution (% ID/g organ) Adrenals” value (30 Min) was 11 ± 2.57 % ID/g organ, the “Biodistribution (% ID/g organ) Adrenals” value (60 Min) was 11.3 ± 0.87 % ID/g organ and the “Biodistribution (% ID/g organ) Adrenals” value (180 Min) was 9.84 ± 1.69 % ID/g organ. The “Biodistribution (% ID/g organ) Adrenals” value (240 Min) was 6.78 ± 1.27 % ID/g organ, the “Biodistribution (% ID/g organ) Adrenals” value (360 Min) was 5.7 ± 0.15 % ID/g organ and the “Biodistribution (% ID/g organ) Blood” value (5 Min) was 0.25 ± 0.04 % ID/g organ. The “Biodistribution (% ID/g organ) Blood” value (15 Min) was 0.16 ± 0.01 % ID/g organ, the “Biodistribution (% ID/g organ) Blood” value (24 Hrs) was 0.01 ± 0.001 % ID/g organ and the “Biodistribution (% ID/g organ) Blood” value (30 Min) was 0.12 ± 0.01 % ID/g organ. The “Biodistribution (% ID/g organ) Blood” value (60 Min) was 0.1 ± 0.01 % ID/g organ, the “Biodistribution (% ID/g organ) Blood” value (180 Min) was 0.07 ± 0.001 % ID/g organ and the “Biodistribution (% ID/g organ) Blood” value (240 Min) was 0.06 ± 0.01 % ID/g organ. The “Biodistribution (% ID/g organ) Blood” value (360 Min) was 0.05 ± 0.001 % ID/g organ, the “Biodistribution (% ID/g organ) Brain” value (5 Min) was 0.11 ± 0.02 % ID/g organ and the “Biodistribution (% ID/g organ) Brain” value (15 Min) was 0.08 ± 0.01 % ID/g organ. The “Biodistribution (% ID/g organ) Brain” value (24 Hrs) was 0 % ID/g organ, the “Biodistribution (% ID/g organ) Brain” value (30 Min) was 0.06 ± 0.01 % ID/g organ and the “Biodistribution (% ID/g organ) Brain” value (60 Min) was 0.04 ± 0.001 % ID/g organ. The “Biodistribution (% ID/g organ) Brain” value (180 Min) was 0.03 ± 0.001 % ID/g organ, the “Biodistribution (% ID/g organ) Brain” value (240 Min) was 0.02 ± 0.01 % ID/g organ and the “Biodistribution (% ID/g organ) Brain” value (360 Min) was 0.02 ± 0.001 % ID/g organ. The “Biodistribution (% ID/g organ) Heart” value (5 Min) was 3.25 ± 0.58 % ID/g organ, the “Biodistribution (% ID/g organ) Heart” value (15 Min) was 2.09 ± 0.09 % ID/g organ and the “Biodistribution (% ID/g organ) Heart” value (24 Hrs) was 0.02 ± 0.001 % ID/g organ. For the same compound, the “Biodistribution (% ID/g organ) Heart” value (30 Min) was 1.41 ± 0.14 % ID/g organ, the “Biodistribution (% ID/g organ) Heart” value (60 Min) was 1.07 ± 0.09 % ID/g organ and the “Biodistribution (% ID/g organ) Heart” value (180 Min) was 0.68 ± 0.09 % ID/g organ. For the same compound, the “Biodistribution (% ID/g organ) Heart” value (240 Min) was 0.54 ± 0.05 % ID/g organ, the “Biodistribution (% ID/g organ) Heart” value (360 Min) was 0.38 ± 0.02 % ID/g organ and the “Biodistribution (% ID/g organ) Kidney” value (5 Min) was 1.8 ± 0.35 % ID/g organ. For the same compound, the “Biodistribution (% ID/g organ) Kidney” value (15 Min) was 1.66 ± 0.13 % ID/g organ, the “Biodistribution (% ID/g organ) Kidney” value (24 Hrs) was 0.03 ± 0.001 % ID/g organ and the “Biodistribution (% ID/g organ) Kidney” value (30 Min) was 1.25 ± 0.09 % ID/g organ. The “Biodistribution (% ID/g organ) Kidney” value (60 Min) was 0.97 ± 0.07 % ID/g organ, the “Biodistribution (% ID/g organ) Kidney” value (180 Min) was 0.61 ± 0.02 % ID/g organ and the “Biodistribution (% ID/g organ) Kidney” value (240 Min) was 0.5 ± 0.07 % ID/g organ. The “Biodistribution (% ID/g organ) Kidney” value (360 Min) was 0.36 ± 0.01 % ID/g organ, the “Biodistribution (% ID/g organ) Liver” value (5 Min) was 0.94 ± 0.12 % ID/g organ and the “Biodistribution (% ID/g organ) Liver” value (15 Min) was 0.7 ± 0.07 % ID/g organ. The “Biodistribution (% ID/g organ) Liver” value (24 Hrs) was 0.09 ± 0.01 % ID/g organ, the “Biodistribution (% ID/g organ) Liver” value (30 Min) was 0.59 ± 0.04 % ID/g organ and the “Biodistribution (% ID/g organ) Liver” value (60 Min) was 0.47 ± 0.02 % ID/g organ. The “Biodistribution (% ID/g organ) Liver” value (180 Min) was 0.37 ± 0.01 % ID/g organ, the “Biodistribution (% ID/g organ) Liver” value (240 Min) was 0.33 ± 0.04 % ID/g organ and the “Biodistribution (% ID/g organ) Liver” value (360 Min) was 0.27 ± 0.01 % ID/g organ. For the same compound, the “Biodistribution (% ID/g organ) Lungs” value (5 Min) was 2.81 ± 0.49 % ID/g organ, the “Biodistribution (% ID/g organ) Lungs” value (15 Min) was 1.79 ± 0.18 % ID/g organ and the “Biodistribution (% ID/g organ) Lungs” value (24 Hrs) was 0.02 ± 0.001 % ID/g organ. The “Biodistribution (% ID/g organ) Lungs” value (30 Min) was 1.39 ± 0.14 % ID/g organ, the “Biodistribution (% ID/g organ) Lungs” value (60 Min) was 0.97 ± 0.22 % ID/g organ and the “Biodistribution (% ID/g organ) Lungs” value (180 Min) was 0.72 ± 0.05 % ID/g organ. The “Biodistribution (% ID/g organ) Lungs” value (240 Min) was 0.63 ± 0.05 % ID/g organ, the “Biodistribution (% ID/g organ) Lungs” value (360 Min) was 0.44 ± 0.07 % ID/g organ and the “Biodistribution (% ID/g organ) Olfactive bulbs” value (5 Min) was 0.2 ± 0.02 % ID/g organ. For the same compound, the “Biodistribution (% ID/g organ) Olfactive bulbs” value (15 Min) was 0.18 ± 0.03 % ID/g organ, the “Biodistribution (% ID/g organ) Olfactive bulbs” value (24 Hrs) was 0.01 ± 0.001 % ID/g organ and the “Biodistribution (% ID/g organ) Olfactive bulbs” value (30 Min) was 0.13 ± 0.02 % ID/g organ. For the same compound, the “Biodistribution (% ID/g organ) Olfactive bulbs” value (60 Min) was 0.14 ± 0.001 % ID/g organ, the “Biodistribution (% ID/g organ) Olfactive bulbs” value (180 Min) was 0.09 ± 0.02 % ID/g organ and the “Biodistribution (% ID/g organ) Olfactive bulbs” value (240 Min) was 0.07 ± 0.001 % ID/g organ. For the same compound, the “Biodistribution (% ID/g organ) Olfactive bulbs” value (360 Min) was 0.05 ± 0.001 % ID/g organ, the “Biodistribution (% ID/g organ) Testes” value (5 Min) was 0.14 ± 0.03 % ID/g organ and the “Biodistribution (% ID/g organ) Testes” value (15 Min) was 0.22 ± 0.06 % ID/g organ. The “Biodistribution (% ID/g organ) Testes” value (24 Hrs) was 0.01 ± 0.001 % ID/g organ, the “Biodistribution (% ID/g organ) Testes” value (30 Min) was 0.26 ± 0.05 % ID/g organ and the “Biodistribution (% ID/g organ) Testes” value (60 Min) was 0.28 ± 0.05 % ID/g organ. For the same compound, the “Biodistribution (% ID/g organ) Testes” value (180 Min) was 0.25 ± 0.01 % ID/g organ, the “Biodistribution (% ID/g organ) Testes” value (240 Min) was 0.22 ± 0.03 % ID/g organ and the “Biodistribution (% ID/g organ) Testes” value (360 Min) was 0.16 ± 0.03 % ID/g organ.
